Among the data in PubChem BioAssay AID2286 (Southern Research Specialized Biocontainment Screening …, 2010) are viability, minimum viability and CC50 values, retold here.

The source made the active and inactive calls.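 Rule for the calls: active = minimum cell viability of 80% or lower across the dose range, counted as toxic; inactive = minimum cell viability above 80%.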 A value given as a limit tells only on which side of the number the result lay.

A short description of experiment [1]: viability loss in fusion assay cells – cell-based, MAGI and MAGI-HeLa co-culture, cytotoxicity control for HIV-1 fusion inhibitor project, dose response (AID 2286).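 For all read-outs here: cells exposed to compound for at least 64 h before ATP readout.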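 For minimum viability: 100% = median of DMSO vehicle wells with no ATP signal meaning 0%.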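 For viability: 100% = median of DMSO vehicle wells with no ATP signal meaning 0%.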 The settings on record: MAGI-CCR5 cells viability, CellTiter-Glo ATP luminescence; for minimum viability: measured here: MAGI minimum viability across doses. A general note: Cellular ATP, detected with luciferase, serves as a proxy for viable cell number.

The test system of experiment [2] is MAGI-CCR5 cells viability, CellTiter-Glo ATP luminescence. Described as above.
[3] abbreviates: MAGI-HeLa co-culture viability, at 50 µM, stronger effect = lower value.
[4] abbreviates: measured here: MAGI + HeLa-R5-16 co-culture viability.
Setting [5] is: at 12.5 µM, stronger effect = lower value.

By viability is commonly meant a read-out of living cells in per cent, often relative to untreated cells. Broadly, the CC50 is the concentration at which the toxic effect on the cells reaches its halfway point. Take `O=S(=O)(Nc1nc2ccccc2nc1Nc1cccc(S(=O)(=O)N2CCCCC2)c1)c1ccccc1`: in experiment [1] (setting [3]), the viability stood at 23.4%. This compound also displayed a minimum viability in experiment [1] (at 50 µM, stronger effect = lower value) of 21.9%. Moreover, the 50% cytotoxic concentration (CC50) in experiment [2] is 9.47 µM; in experiment [2] (setting [4]), 18.8 µM.
On to `COc1ccc(C(=O)/C=C/c2ccc(OCc3ccccc3)cc2)cc1CSCC(=O)O`, for which, in experiment [1] (setting [3]), the viability came out at 86.3%. This compound also returned a minimum viability in experiment [1] (at 50 µM, stronger effect = lower value) of 42.6%. The CC50 in experiment [2] was 46 µM.
Turning to `O=C(O)c1ccccc1NC(=O)c1ccccc1Nc1ccccc1`, the viability in experiment [1] (setting [3]) is 58.2%. In experiment [1] (at 50 µM, stronger effect = lower value), this compound yielded a minimum viability of 47.6%. Also, the 50% cytotoxic concentration (CC50) in experiment [2] is 42.7 µM; in experiment [2] (setting [4]), above 50 µM.
`O=C(O)CCn1cc(/C=C/C(=O)c2ccc(Cl)cc2)c(-c2ccc(Br)cc2)n1`: the viability in experiment [1] (setting [3]) amounted to 36.4%. This compound also returned a minimum viability in experiment [1] (at 50 µM, stronger effect = lower value) of 11.5%. Also, the CC50 in experiment [2] was 30.7 µM; in experiment [2] (setting [4]), 45.5 µM.
Regarding `COc1ccc(C(=O)/C=C/c2cccc(OCc3ccccc3)c2)cc1CSCC(=O)O`, in experiment [1] (setting [3]), the viability stood at 13.8%. The same compound showed a minimum viability in experiment [1] (at 50 µM, stronger effect = lower value) of 5.22%. Further, the 50% cytotoxic concentration (CC50) in experiment [2] was 28.5 µM; in experiment [2] (setting [4]), 46.4 µM.
Taken in the same sequence, the figures for `O=C(NN1C(=O)/C(=C/c2ccc(O)cc2)SC1=S)c1ccccc1O` were 36.5%, 27.6%, 26.7 µM and 41.3 µM.
`CN(C)S(=O)(=O)c1cccc(-c2nn(-c3ccccc3)cc2/C=C2\SC(=S)N(CC(=O)O)C2=O)c1`: the viability in experiment [1] (setting [3]) turned out to be 74.7%. This compound also displayed a minimum viability in experiment [1] (at 50 µM, stronger effect = lower value) of 68.6%. In experiment [2] (setting [4]), the half-maximal cytotoxic concentration (CC50) is above 50 µM.
`O=C(O)COc1ccc(/C=C/C(=O)c2ccc(C3CCCCC3)cc2)cc1`: the viability in experiment [1] (setting [3]) came out at 76.3%. Besides, the minimum viability in experiment [1] (at 50 µM, stronger effect = lower value) is 48.7%. The values for the CC50 in experiment [2] and in experiment [2] (setting [4]) were 49.7 µM and above 50 µM, respectively.
`O=C(O)CN1C(=O)/C(=C\c2cc(Br)ccc2OCc2ccc([N+](=O)[O-])cc2)SC1=S`: the viability in experiment [1] (setting [3]) is 24.7%. Further, the minimum viability in experiment [1] (at 50 µM, stronger effect = lower value) came to 69.8%. Moreover, the 50% cytotoxic concentration (CC50) in experiment [2] (setting [4]) was 19.9 µM.
In the case of `O=C(O)CCn1cc(/C=C/C(=O)c2ccc(Cl)cc2)c(-c2cccc(Br)c2)n1`, the viability in experiment [1] (setting [3]) came to 87%. Also, the minimum viability in experiment [1] (at 50 µM, stronger effect = lower value) came out at 40.5%. In addition, the cytotoxic concentration (CC50) in experiment [2] was 43.1 µM.
For the compound `C/C(=N\Nc1ccc(C(=O)O)cc1)c1ccc2c(c1)Nc1ccccc1S2`, the viability in experiment [1] (setting [3]) stood at 52.7%. For the same compound, the minimum viability in experiment [1] (at 50 µM, stronger effect = lower value) is 47.2%. Further, the CC50 in experiment [2] was 46.2 µM; in experiment [2] (setting [4]) it was 26.2 µM.
In the case of `O=C(O)c1ccc(Nc2nc(-c3cc4ccccc4oc3=O)cs2)cc1O`, the figures for the viability in experiment [1] (setting [3]) and in experiment [1] (at 50 µM (top of the series)) were 77.6% and 85.6% (inactive), respectively. In experiment [1] (at 50 µM, stronger effect = lower value), the minimum viability came to 85.6%. In addition, the CC50 in experiment [2] (setting [4]) is above 50 µM.
Regarding `O=C(O)c1cccc2c1NC(c1cccc([N+](=O)[O-])c1)C1CC(Sc3ccccc3[N+](=O)[O-])C(Cl)C21` (configuration not stated), the viability in experiment [1] (setting [3]) was 48.4%. Further, in experiment [1] (at 50 µM, stronger effect = lower value), the minimum viability turned out to be 53.6%. The CC50 in experiment [2] (setting [4]) came out at 47.9 µM.
As for `COc1ccc(-c2nn(-c3ccccc3)cc2/C=C2/SC(=S)N(CCC(=O)O)C2=O)c(C)c1`, in experiment [1] (setting [3]), the viability amounted to 71.9%. The same compound yielded a minimum viability in experiment [1] (at 50 µM, stronger effect = lower value) of 52%. Moreover, the CC50 in experiment [2] is 48.6 µM; in experiment [2] (setting [4]) it was above 50 µM.
Regarding `Cc1c2c(=O)n(-c3nc4ccccc4s3)nc-2cc(O)n1Cc1ccccc1`, the viability in experiment [1] (setting [3]) was 49.2%. In experiment [1] (at 50 µM, stronger effect = lower value), the minimum viability was found to be 42.5%. The results for the 50% cytotoxic concentration (CC50) in experiment [2] and in experiment [2] (setting [4]) were 33.2 µM and above 50 µM, respectively.
Take `COc1ccc(C(=O)/C=C/c2ccc(-c3ccccc3)cc2)cc1CSCC(=O)O`: the viability in experiment [1] (setting [3]) was found to be 5.69%. In experiment [1] (at 50 µM, stronger effect = lower value), this compound came in with a minimum viability of 3.11%. In addition, the CC50 is 13 µM in experiment [2] and 23.2 µM in experiment [2] (setting [4]).
`CC(C(=O)Nc1ccc(O)c(C(=O)O)c1)N1C(=O)/C(=C/c2cccs2)SC1=S` (configuration not stated): the viability in experiment [1] (setting [3]) stood at 66.1%. In experiment [1] (at 50 µM, stronger effect = lower value), the minimum viability worked out at 51.2%. The figures for the CC50 in experiment [2] and in experiment [2] (setting [4]) were 46.4 µM and above 50 µM, respectively.
As for `O=C(Nc1cc(S(=O)(=O)N2CCCCC2)ccc1Cl)c1ccccc1NS(=O)(=O)c1ccc(F)cc1`, the viability in experiment [1] (setting [3]) was found to be 24.8%. The minimum viability in experiment [1] (setting [5]) came to 19.1%. The CC50 in experiment [2] was 2.49 µM; in experiment [2] (setting [4]) it was 7.38 µM.
In the case of `O=C(NN1C(=O)/C(=C/c2ccc(O)c([N+](=O)[O-])c2)SC1=S)c1ccccc1Cl`, the viability in experiment [1] (setting [3]) was 76.4%. Moreover, the minimum viability in experiment [1] (at 50 µM, stronger effect = lower value) was determined as 67.5%. In addition, the CC50 in experiment [2] (setting [4]) is above 50 µM.
With `O=c1cc(-c2ccccc2Cl)oc2c(NS(=O)(=O)c3cc(Cl)cc(Cl)c3O)ccc(O)c12`, the viability in experiment [1] (setting [3]) was 20.8%. Further, the minimum viability in experiment [1] (at 50 µM, stronger effect = lower value) was 16.3%. In addition, the CC50 in experiment [2] is 5.61 µM; in experiment [2] (setting [4]) it was 15.6 µM.
Regarding `CCCCCC(=O)Cc1cc(O)cc2c1C(=O)Oc1cc(O)c(C(=O)O)c(CCCCC)c1O2`, the viability in experiment [1] (setting [3]) worked out at 46.4%. In experiment [1] (at 50 µM, stronger effect = lower value), this compound yielded a minimum viability of 39.1%. Further, the CC50 in experiment [2] is 43.3 µM; in experiment [2] (setting [4]) it was 46.7 µM.
The like results for `COCCN1C(=O)/C(=C/c2ccc(OCc3ccc(C(=O)O)cc3)c(OC)c2)SC1=Nc1ccccc1` were, in that order, 44.3%, 41.3%, 33.8 µM and 35.4 µM.
Taken in the same sequence, the figures for `Cc1nn(CCc2nn[nH]n2)c2nc(-c3ccc(C4CCCCC4)cc3)cc(C(F)(F)F)c12` were 66.9%, 42.9%, 36.3 µM and above 50 µM.
In the case of `COc1cc(/C=C2\C(=N)N3N=C(S(C)(=O)=O)SC3=NC2=O)ccc1OCCOc1ccccc1C`, the viability in experiment [1] (setting [3]) amounted to 15%. The compound further had a minimum viability in experiment [1] (at 50 µM, stronger effect = lower value) of 51.5%. The CC50 in experiment [2] (setting [4]) came out at 10 µM.
Turning to `O=C(N/N=C/c1ccc(-c2ccc(S(=O)(=O)Nc3ncccn3)cc2)o1)c1cc2ccccc2cc1O`, the viability in experiment [1] (setting [3]) was found to be 30.7%. The minimum viability in experiment [1] (at 50 µM, stronger effect = lower value) was 16.4%. Further, the CC50 in experiment [2] is 15.8 µM; in experiment [2] (setting [4]) it was 32.6 µM.
With `CC(C)(C)c1ccc(OCC(=O)NNC(=S)NC(=O)c2ccccc2[N+](=O)[O-])c(Br)c1`, the viability in experiment [1] (setting [3]) was 67.6%. The same compound displayed a minimum viability in experiment [1] (at 50 µM, stronger effect = lower value) of 71%. The 50% cytotoxic concentration (CC50) in experiment [2] (setting [4]) is above 50 µM.
Consider `COc1cc(/C=C2/SC(=S)NC2=O)ccc1OS(=O)(=O)c1ccc(C)cc1`, for which, in experiment [1] (setting [3]), the viability is 28.8%. In experiment [1] (at 50 µM, stronger effect = lower value), the minimum viability came out at 21.6%. Further, the CC50 was 12 µM in experiment [2] and 28.9 µM in experiment [2] (setting [4]).
For the compound `CCOc1cc(/C=N/N=C2/NC(=O)C(CC(=O)O)S2)ccc1OCc1ccc(Cl)cc1` (configuration not stated), the viability is 75.2% in experiment [1] (setting [3]) and 101% (inactive) in experiment [1] (at 50 µM (top of the series)). The same compound had a minimum viability in experiment [1] (setting [5]) of 85.4%. Further, the CC50 in experiment [2] (setting [4]) is above 50 µM.
For `COc1ccc(-c2nn(-c3ccccc3)cc2/C=C2/SC(=S)N(CCCC(=O)O)C2=O)c(C)c1`, the viability in experiment [1] (setting [3]) is 68.8%. Also, in experiment [1] (at 50 µM, stronger effect = lower value), the minimum viability was determined as 57%. The CC50 in experiment [2] (setting [4]) was above 50 µM.
Taken in the same sequence, the figures for `O=C(NN1C(=O)/C(=C\c2ccc(O)c([N+](=O)[O-])c2)SC1=S)c1ccccc1Cl` were 69.9%, 62.8% and above 50 µM.
Consider `Cc1cccc(C)c1-n1cccc1/C=C1\SC(=S)N(c2cccc(C(=O)O)c2)C1=O`, for which the viability in experiment [1] (setting [3]) came out at 67.8%. The minimum viability in experiment [1] (at 50 µM, stronger effect = lower value) amounted to 62.3%. Further, the half-maximal cytotoxic concentration (CC50) in experiment [2] (setting [4]) was above 50 µM.
For `O=C(O)CN1C(=O)/C(=C\c2ccccc2OCc2ccc(Cl)cc2Cl)SC1=S`, the viability in experiment [1] (setting [3]) was 67.5%; in experiment [1] (at 50 µM (top of the series)), 84.5% (inactive). The minimum viability in experiment [1] (at 50 µM, stronger effect = lower value) came out at 84.5%. Moreover, the CC50 in experiment [2] (setting [4]) was above 50 µM.
